Experiments:
P. aeruginosa ATCC 27853 = experiment: SYTOX Green absorption assay (membrane permeabilisation); assay type: cell-based, Pseudomonas aeruginosa
Experimental: (§1) The effect of peptide γ2 on the membrane integrity of S. aureus ATCC 6538 and P. aeruginosa ATCC 27853 was evaluated by measuring the extent of intracellular accumulation of SYTOX green (Juba M L, et al. Biochim Biophys Acta. 2015; 1848 (5): 1081-91). The cells were harvested halfway through the log phase, washed, and resuspended in 10 mM of phosphate buffer. The final density was adjusted to 5×10^7 CFU/mL. The cells were then treated with peptide γ2 (0.625, 1.25, 2.5, 12.5, 25 μM) in the presence of 200 nM SYTOX green (Invitrogen). The fluorescence increase of SYTOX green, a direct measurement of the degree of membrane permeabilisation, was monitored with a fluorescence spectrophotometer. The excitation and emission wavelengths used were 503 nm and 523 nm respectively. 5

HUVEC endothelial cells = experiment: Cell migration assay in Boyden chambers; assay type: cell-based
Experimental: (§2) Cell migration assays were conducted as previously described (Bifulco K et al., Mol Cancer There 2013; 2:1981-93), using Boyden chambers and polyvinylpyrrolidone-free polycarbonate filters with 8 μm pores inserted between a lower and upper compartment. Briefly, the cell suspension (1×10^5 viable cells/mL of serum-free medium) was seeded in each upper chamber. The lower chambers were filled with DMEM only, DMEM containing 10 nM N-formyl-methionyl-leucylphenylalanine peptide (fMLF), as positive control, or increasing peptide γ2 concentration. Incubation was conducted for 4 h at 37° C. in air humidified with 5% CO2. At the end of the assay, the cells on the lower surface of the filter were fixed with ethanol and stained with haematoxylin, and 10 random fields/filter were counted with a 200× magnification. The extent of cell migration was expressed as a percentage of baseline cell migration evaluated in the absence of chemo-attractants, taken as 100% (CTRL).

HT-1080 cells [1] = experiment: Cell migration assay in Boyden chambers; assay type: cell-based
Experimental: as §2

A549 cells [2] = experiment: Cell migration assay in Boyden chambers; assay type: cell-based
Experimental: as §2

HT-1080 cells [3] = test system: HT-1080 cells
Experimental: (§6) Parental HT-1080, HUVEC, SH-SY5Y human fibroblasts (HF) and A549 cells from Culture Cell Lines Facility CEINGE Biotecnologie Avanzate s.c.ar.l., Naples, Italy, and HeLa cells (ATCC CCL-2) stored in liquid nitrogen, were thawed by stirring the vials gently for 2 minutes in a water bath at 37° C. […]
(§7) The cells were incubated for 24 hours at 37° C. in 5% CO2 to allow them to grow and form a single layer in the flask. Cells grown to 80-95% confluency were washed with PBS, treated with 3 mL of trypsin-EDTA 1× solution, diluted, counted and seeded (4×10^3 cells/200 μl per well) in 96-well tissue-culture plates for 24 h in triplicate. The reduction in cell proliferation was evaluated with the 3-[4,5-dimethylthiazol-2-yl]-2,5-diphenyltetrazolium bromide (MTT) assay, which measures metabolic changes. […] After incubation, the presence of violet crystals, which normally indicate metabolisation of MTT, was evaluated. […] The specific stain eluted was measured with a spectrophotometer (550 nm). […] The cell inhibition percentage was determined with the following formula:
(§8) % cell inhibition=100−(Absorbance of treated cells/Absorbance of control cells)×100. […]
(§9) The mean percentage cell inhibition values for each cell line at different peptide γ2 concentrations compared with the untreated cells were analysed with One-way ANOVA.

A549 cells [4] = test system: A549 cells
Experimental: as §6, §7, §8, §9

[5] = test system: peripheral blood mononuclear cells (PBMC); experiment: Cytokine secretion measurement (ProcartaPlex/Luminex); assay type: cell-based, human; settings: PBMCs from healthy donors; 1.25 and 12.5 μM; 18 hours
Text: Supernatants for cytokine evaluation were harvested from peripheral blood mononuclear cell cultures (PBMCs) and analysed with the Invitrogen ProcartaPlex bead-based immunoassay (Invitrogen, Thermo Fisher Scientific) using the Luminex instrument platform (Luminex 200, Luminex Corporation), according to the manufacturer's instructions. xPONENT 3.1 software (Luminex) was used for acquisition and analysis of the samples.

S. aureus ATCC 6538 = experiment: SYTOX Green absorption assay (membrane permeabilisation); assay type: cell-based, Staphylococcus aureus
Experimental: as §1

[6] = test system: S. aureus ATCC 6538 biofilm; experiment: Biofilm formation and maturation, crystal violet; assay type: cell-based, Staphylococcus aureus; settings: concentrations slightly higher than MIC, dose-dependent, maximum activity at 125 μM
Experimental: (§3) The biofilm formation test for S. aureus ATCC 6538 and P. aeruginosa ATCC 27853 was conducted in 96-well plates, as previously reported (Merritt J H, Kadouri D E, O'Toole G A. Growing and analyzing static biofilms. Curr Protoc Microbiol. 2005; Chapter 1: Unit 1B.1.)
(§4) Briefly, the bacteria from overnight cultures were diluted and grown to 0.5 McFarland. The bacteria were diluted 1:100 and plated in each well containing 100 μL of BHI broth. To evaluate the impact of peptide γ2 on biofilm formation, the medium was supplemented with various concentrations of peptide (2.5, 12.5, 25 and 125 μM) and incubated overnight. To evaluate biofilm maturation, the bacteria of the cultures grown overnight were diluted 1:1000, and 5 μL of said bacterial suspensions was added to each well, containing 100 μL of BHI broth, and left to grow overnight. The medium was then removed and replaced with fresh medium containing various peptide concentrations (2.5, 12.5 and 125 μM). At the end of incubation, the medium was removed; the biofilms were washed twice with PBS and stained with crystal violet (1%) for 30 minutes, then resuspended in 200 μL of ethanol. The negative controls were bacteria incubated with medium only. The positive controls were bacteria incubated with medium supplemented with 0.42 μM gentamicin.

[7] = test system: P. aeruginosa ATCC 27853 biofilm; experiment: Biofilm formation by LIVE/DEAD imaging; assay type: cell-based, Pseudomonas aeruginosa; settings: 24 h static culture
Experimental: (§5) The formation of S. aureus ATCC 6538 and P. aeruginosa ATCC 27853 biofilms was also evaluated by imaging. The medium was then supplemented with various peptide concentrations (2.5, 12.5 and 25 μM) and incubated overnight, and the biofilms were stained with a FilmTracer LIVE/DEAD biofilm viability kit (Invitrogen) according to the manufacturer's instructions. The images were acquired with Cell Discoverer 7, Zeiss.

[8] = test system: P. aeruginosa ATCC 27853 biofilm; experiment: Biofilm formation and maturation, crystal violet; assay type: cell-based, Pseudomonas aeruginosa; settings: concentrations slightly higher than MIC, dose-dependent, maximum activity at 125 μM
Experimental: as §3, §4

[9] = test system: S. aureus ATCC 6538 biofilm; experiment: Biofilm formation by LIVE/DEAD imaging; assay type: cell-based, Staphylococcus aureus; settings: 24 h static culture
Experimental: as §5

Experimental for HUVEC cells: as §6, §7, §8, §9
Experimental for HeLa cells: as §6, §7, §8, §9
Experimental for human fibroblasts (HF): as §6, §7, §8, §9

Ac-CLPKRRQIGKSSTRGRKSCKK-NH2 (not fully specified (bridges); printed as Ac-CLPKRRQIGKSSTRGRKSCKK-NH2; also: oxidised (disulfide) or reduced form, both stated) [peptide γ2]
incubation time at which increased influx of SYTOX Green was seen (P. aeruginosa ATCC 27853): 15 min
dose at which the peptide already effectively permeabilised the bacteria (P. aeruginosa ATCC 27853; SYTOX Green, dose-dependent): 1.25 µM
directional cell migration (HUVEC endothelial cells; HUVEC, 100 μM versus 50 μM): did not further increase directional cell migration
chemotactic effect (HUVEC endothelial cells; HUVEC, low concentrations): slight chemotactic effect
directional migration, % of the baseline cell migration (HUVEC endothelial cells; endothelial cells (HUVEC), 50 μM, 4 h): 156%
directional migration, % of the baseline cell migration (HT-1080 cells [1]; 50 μM, 4 h): 158%
directional cell migration (HT-1080 cells [1]; 100 μM versus 50 μM): did not further increase directional cell migration
chemotactic effect (HT-1080 cells [1]; low concentrations): slight chemotactic effect
directional migration, % of the baseline cell migration (A549 cells [2]; 50 μM, 4 h): 169%
directional cell migration (A549 cells [2]; 100 μM versus 50 μM): did not further increase directional cell migration
chemotactic effect (A549 cells [2]; low concentrations): slight chemotactic effect
cell viability (HT-1080 cells [3]): viability remained high
reduction of cell viability (A549 cells [4]): about 20%
IL-1 secretion [5]: up-regulated
IL-6 secretion [5]: up-regulated
IL-9 secretion [5]: up-regulated
INF-γ secretion [5]: up-regulated
reduction of cell viability (human fibroblasts (HF)): about 20%
incubation time at which increased influx of SYTOX Green was evident (S. aureus ATCC 6538): 40 min
dose at which the peptide already effectively permeabilised the bacteria (S. aureus ATCC 6538; SYTOX Green, dose-dependent): 1.25 µM
cell viability (HeLa cells): viability remained high
cell viability compared with the control cells (HeLa cells; human, HeLa cells, 6 h, 40 µM): 97%
biofilm formation [6]: significantly inhibited
biofilm maturation [6]: significantly inhibited
smallest dose at which inhibition of biofilm formation was already evident [7]: 2.5 µM
biofilm formation [8]: significantly inhibited
biofilm maturation [8]: significantly inhibited
smallest dose at which inhibition of biofilm formation was already evident [9]: 2.5 µM
reduction of cell viability (HUVEC cells): about 20%

— patent US20240417435A1, “DEFENSIN-DERIVED PEPTIDE WITH ANTIBACTERIAL ACTIVITY ALSO AGAINST MULTI-ANTIBIOTIC-RESISTANT BACTERIA” (priority 2021, published 2024)
